{"source": "paper PMC6839502", "about": "(Journal of Alzheimer's Disease, 2019)", "experiment": "Safety and tolerability in study B8271007", "format": "in vivo, human", "details": "100 mg QD"}
{"smiles": "C[C@H]1C[C@H]2CSC(N)=N[C@@]2(c2nc(NC(=O)c3ccc(OC(F)F)cn3)cs2)CO1", "note": "[PF-06751979]", "values": [{"measurement": "ALT elevation, one subject", "setting": "period 2, Day 7", "value": 2.12, "unit": "×ULN"}, {"measurement": "AST elevation, one subject", "setting": "period 2, Day 7", "value": 1.23, "unit": "×ULN"}, {"measurement": "AST peak, one subject", "setting": "period 2, Day 12", "value": 1.75, "unit": "×ULN"}, {"measurement": "ALT peak, one subject", "setting": "period 2, Day 13", "value": 3.33, "unit": "×ULN"}]}
